Experimental data: patent publication US7244727B2, “Fused bicyclic nitrogen-containing heterocycles” (Japan Tobacco Inc., priority 2002, dated 2007)

Columns and labels:
human DGAT1 = target: T1, human DGAT1 (Homo sapiens, UniProt O75907); test: DGAT Scintillation Proximity Assay (SPA) with membranes of insect cells expressing human flagtag DGAT1; type: biochemical; conditions: read-out: hDGAT1 IC50
T1 construct: made in house; host or cells: insect cells (sf9, sf21 or High Five) infected with baculovirus; total cell membranes
T1 sequence (O75907 1-488): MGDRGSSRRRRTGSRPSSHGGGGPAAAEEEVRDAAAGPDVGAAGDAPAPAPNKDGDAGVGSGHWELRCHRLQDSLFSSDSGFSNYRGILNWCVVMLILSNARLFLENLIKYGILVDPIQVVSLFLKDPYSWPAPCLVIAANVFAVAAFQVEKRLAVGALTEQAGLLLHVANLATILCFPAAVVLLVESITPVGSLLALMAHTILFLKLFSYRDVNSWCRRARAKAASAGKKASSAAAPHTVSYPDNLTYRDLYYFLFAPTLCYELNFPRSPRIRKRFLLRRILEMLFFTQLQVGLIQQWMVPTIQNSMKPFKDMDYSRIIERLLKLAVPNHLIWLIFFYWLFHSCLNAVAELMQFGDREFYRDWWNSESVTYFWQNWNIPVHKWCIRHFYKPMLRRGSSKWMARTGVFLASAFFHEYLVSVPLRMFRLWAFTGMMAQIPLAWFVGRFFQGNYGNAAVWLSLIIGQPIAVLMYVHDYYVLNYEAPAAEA
Outline: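 Membranes (0.2 μg/well) from insect cells expressing human flag-tagged DGAT1 incubated with 10 μM compound and 200 μM dioleoyl glycerol substrate; mercuric chloride as inhibition control. Reaction stopped with WGA SPA beads in mercuric chloride, overnight bead coupling, then scintillation proximity signal read.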

Compound	IC50 (human DGAT1) [nM]	melting point
Nc1ncnc2c1N=C(c1ccc(Cl)cc1)CO2 [Example 1-3]	> 100	> 220 °C
CC1(C)Oc2ncnc(N)c2N=C1c1ccc(C2CCC(=CC(=O)NCc3ccccc3)CC2)cc1 (centres unmarked) [Example 2-45]	10 to 100	142 to 144 °C
Cc1nc(N)c2c(n1)OC(C)(C)C(c1ccc([C@H]3CC[C@H](Cc4nc(=O)s[nH]4)CC3)cc1)=N2 [Example 2-152]	10 to 100	225 to 226 °C
Cc1nc(N)c2c(n1)OC(C)(C)C(c1ccc([C@H]3CC[C@H](CC(=O)O)CC3)c(N)c1)=N2 [Example 6-3]	10 to 100	280 °C (dec.)
CCOC(=O)C1CCN(c2ccc(C3=Nc4c(N)ncnc4OC3(C)C)cc2)CC1 [Example 4-3]	> 100	176 to 177 °C
CC(=O)N1CCN(C[C@H]2CC[C@H](c3ccc(C4=Nc5c(N)ncnc5OC4(C)C)cc3)CC2)CC1 [Example 2-249]	10 to 100	202 to 203 °C
CC1(C)Oc2ncnc(N)c2N=C1c1ccc([C@H]2CC[C@H](CN3C(=O)c4ccccc4C3=O)CC2)cc1 [Example 2-217]	10 to 100	225 to 227 °C
Cc1nc(N)c2c(n1)OC(C)(C)C(c1ccc([C@H]3CC[C@H](CCc4nc(=O)on4C)CC3)cc1)=N2 [Example 2-197]	10 to 100	250 °C (dec.)
CC1(C)Oc2ncnc(N)c2N=C1c1ccc([C@H]2CC[C@H](CCN3CCC(CCO)CC3)CC2)cc1 [Example 2-87]	> 100	221 to 222 °C
CC1(C)Oc2ncnc(N)c2N=C1c1ccc([C@H]2CC[C@H](Cc3cnc(-c4ccccc4)[nH]3)CC2)cc1 [Example 2-123]	10 to 100	230 to 231 °C
Cc1nc(N)c2c(n1)OC(C)(C)C(c1ccc([C@H]3CC[C@H](C(=O)Nc4nn[nH]n4)CC3)cc1)=N2 [Example 2-264]	10 to 100	> 250 °C
CC1(C)Oc2ncnc(N)c2N=C1c1ccc([C@H]2CC[C@H](C(=O)N3CCC(O)CC3)CC2)cc1 [Example 2-237]	10 to 100	250 to 252 °C
CC1(C)Oc2ncnc(N)c2N=C1c1ccc([C@H]2CC[C@H](CCN3CCCC3)CC2)cc1 [Example 2-83]	> 100	142 to 143 °C
CCCc1ccc(C2=Nc3c(N)ncnc3OC2)cc1 [Example 1-20]	> 100	189 to 192 °C
Cc1nc(N)c2c(n1)OC(C)(C)C(c1ccc([C@H]3CC[C@H](Cc4cc(O)n(C)n4)CC3)cc1)=N2 [Example 2-165]	10 to 100	> 250 °C
CN(CC(=O)O)C(=O)[C@H]1CC[C@H](c2ccc(C3=Nc4c(N)ncnc4OC3(C)C)cc2)CC1 [Example 2-219]	10 to 100	243 to 248 °C
CC1(C)Oc2nc(C(F)(F)F)nc(N)c2N=C1c1ccc([C@H]2CC[C@H](CN3CCOC3=O)CC2)c(Cl)c1 [Example 6-21]	10 to 100	> 250 °C
Cc1nc(N)c2c(n1)OC(C)(C)C(c1ccc([C@H]3CC[C@H](CNC(=O)N4CCOCC4)CC3)c(Cl)c1)=N2 [Example 6-15]	10 to 100	225 to 228 °C
Nc1nc(O)nc2c1N=C(c1ccc(Br)cc1)CO2 [Example 1-29]	> 100	> 220 °C
CC1(C)Oc2ncnc(N)c2NC1c1ccc([C@H]2CC[C@H](NS(N)(=O)=O)CC2)cc1 (some centres unmarked) [Example 2-222]	> 100	> 250 °C
CC1(C)Oc2ncnc(N)c2N=C1c1ccc([C@H]2CC[C@H](Cc3cc(O)on3)CC2)cc1 [Example 2-60]	10 to 100	173 to 175 °C
CC1(C)Oc2ncnc(N)c2N=C1c1ccc([C@H]2CC[C@H](CNC(=O)OCc3ccccc3)CC2)cc1 [Example 2-61]	10 to 100	159 to 162 °C
CCN(CC)c1ccc(C2=Nc3c(N)ncnc3OC2)cc1 [Example 1-6]	> 100	206 °C (dec.)
CC(=O)NCC[C@H]1CC[C@H](c2ccc(C3=Nc4c(N)ncnc4OC3(C)C)cc2)CC1 [Example 2-174]	10 to 100	238 to 239 °C
CC1(C)Oc2ncnc(N)c2N=C1c1ccc([C@H]2CC[C@H](CN3CCN(S(C)(=O)=O)CC3)CC2)cc1 [Example 2-240]	10 to 100	233 to 235 °C
CC(C)(C)OC(=O)CNC(=O)C=C1CCC(c2ccc(C3=Nc4c(N)ncnc4OC3(C)C)cc2)CC1 (centres unmarked) [Example 2-52]	10 to 100	212 to 215 °C

Compound	IC50 (human DGAT1) [nM]	melting point
CC1(C)Oc2ncnc(N)c2N=C1c1ccc([C@H]2CC[C@H](OCC(=O)O)CC2)cc1 [Example 2-62]	10 to 100	> 230 °C
CC1(C)Oc2ncnc(N)c2NC1c1ccc(C2CCCCC2)cc1 (centres unmarked) [Example 2-22]	> 100	> 230 °C
Cc1nc(N)c2c(n1)OC(C)(C)C(c1ccc([C@H]3CC[C@H](CNC(N)=O)CC3)cc1)=N2 [Example 2-161]	10 to 100	219 to 221 °C
Cc1nc(N)c2c(n1)OC(C)(C)C(c1ccc([C@H]3CC[C@H](CCC(=O)Nc4nn[nH]n4)CC3)cc1)=N2 [Example 2-201]	< 10	> 250 °C
CC1(C)Oc2ncnc(N)c2N=C1c1ccc([C@H]2CC[C@H](CN3CCCC3)CC2)cc1 [Example 2-229]	> 100	160 to 162 °C
Cc1nc(N)c2c(n1)OC(C)(C)C(c1ccc([C@H]3CC[C@H](CCNC(=O)CO)CC3)cc1)=N2 [Example 2-160]	10 to 100	185 to 186 °C
Cc1nc(N)c2c(n1)OC(C)(C)C(c1ccc([C@H]3CC[C@H](C[S+]([O-])CC(=O)O)CC3)cc1)=N2 (some centres unmarked) [Example 2-262]	10 to 100	> 166 °C
CC1(C)Oc2ncnc(N)c2N=C1c1ccc([C@H]2CC[C@H](CC(=O)N3CCC[C@H]3CO)CC2)cc1 [Example 2-100]	10 to 100	184 to 185 °C
CC1(C)Oc2nc(C(F)(F)F)nc(N)c2N=C1c1ccc([C@H]2CC[C@H](Cc3nc(=O)o[nH]3)CC2)c(Cl)c1 [Example 6-25]	10 to 100	236 to 237 °C
Cc1nc(N)c2c(n1)OC(C)(C)C(c1ccc([C@H]3CC[C@H](CNC(=O)C(C)(C)CO)CC3)cc1)=N2 [Example 2-139]	10 to 100	249 to 250 °C
CC1(C)Oc2ncnc(N)c2N=C1c1ccc2c(c1)CCCC2 [Example 2-66]	> 100	176 to 177 °C
Cc1nc(N)c2c(n1)OC(C)(C)C(c1ccc([C@H]3CC[C@H](C(=O)NC(C)(C)CO)CC3)cc1)=N2 [Example 2-257]	10 to 100	220 to 225 °C
CC1(C)Oc2ncnc(N)c2N=C1c1ccc([C@H]2CC[C@H](NC(=O)CO)CC2)cc1 [Example 2-234]	10 to 100	226 to 230 °C
Nc1ncnc2c1N=C(c1cccnc1)CO2 [Example 1-17]	> 100	> 220 °C
CC1(C)Oc2ncnc(N)c2N=C1c1ccc([C@H]2CC[C@H](Cc3nc4ccccc4[nH]3)CC2)cc1 [Example 2-109]	10 to 100	> 230 °C
CC(C)(NC(=O)C[C@H]1CC[C@H](c2ccc(C3Nc4c(N)ncnc4OC3(C)C)cc2)CC1)C(=O)O (some centres unmarked) [Example 2-73]	10 to 100	> 250 °C
Cc1nc(N)c2c(n1)OC(C)(C)C(c1ccc([C@H]3CC[C@H](CC(=O)Cc4nn[nH]n4)CC3)cc1)=N2 [Example 2-148]	< 10	> 250 °C
CC1(C)Oc2ncnc(N)c2N=C1c1ccc(C2CCC(=CC(=O)O)CC2)cc1 (centres unmarked) [Example 2-40]	< 10	> 250 °C
CCOc1cc(C2=Nc3c(N)nc(C)nc3OC2(C)C)ccc1[C@H]1CC[C@H](CC(=O)O)CC1 [Example 6-8]	10 to 100	224 to 225 °C
CC(C)(NC(=O)[C@H]1CC[C@H](c2ccc(C3=Nc4c(N)ncnc4OC3(C)C)cc2)CC1)C(=O)O [Example 2-212]	< 10	> 250 °C
CN(CC[C@H]1CC[C@H](c2ccc(C3=Nc4c(N)ncnc4OC3(C)C)cc2)CC1)C(=O)CO [Example 2-104]	10 to 100	186 to 188 °C
Nc1ncnc2c1N=C(c1ccc(Cl)c(Cl)c1)CO2 [Example 1-27]	> 100	> 220 °C
CC1(C)Oc2ncnc(N)c2N=C1c1ccc([C@H]2CC[C@H](CN3CC(=O)NC3=O)CC2)cc1 [Example 2-70]	10 to 100	212 to 214 °C
Cc1nc(N)c2c(n1)OC(C)(C)C(c1ccc([C@H]3CC[C@H](CC(=O)N(C)CC(N)=O)CC3)cc1)=N2 [Example 2-144]	10 to 100	> 230 °C
Cc1ncc(CC[C@H]2CC[C@H](c3ccc(C4=Nc5c(N)ncnc5OC4(C)C)cc3)CC2)[nH]1 [Example 2-185]	10 to 100	193 to 194 °C
Cc1nc(N)c2c(n1)OC(C)(C)C(c1ccc(C3CC(CCC(=O)O)C3)cc1)=N2 (centres unmarked) [Example 2-149]	10 to 100	237 to 238 °C
